Assay results from the supplement of paper PMC4862054.

Legend:
Settings in all cases: incubation time: 72 h
[1] = system: HDQ-P1; assay: normalised viability (% of control), CellTiter-Blue; higher = more viable cells (about 100 = DMSO control)
Experimental: (§1)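 DSRT, CellTiter-Blue viability, 72 h incubation. Signal is normalised to DMSO and benzethonium chloride controls. Value is the normalised response at dose 3.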

[2] = system: HCC1143; assay: as above
Experimental: as §1

[3] = system: CAL-51; assay: as above
Experimental: as §1

[4] = system: CAL-148; assay: as above
Experimental: as §1

[5] = system: HCC1937; assay: as above
Experimental: as §1

[6] = system: CAL-120; assay: drug sensitivity score (DSS), CellTox Green (DSS (AUC-based score)); higher = stronger drug effect (viability inhibition or cytotoxicity); extreme values may be limits of the assay
How it was run: (§2)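 The drug sensitivity score was computed from the area under the fitted dose-response curve. Breast cancer cell lines in 20 µl suspension went into 384-well plates holding compound at 5 concentrations (10-fold steps over a 10,000-fold, compound-specific range) for 72 h of incubation. CellTox Green fluorescence (485/520 nm) was read before CellTiter-Glo luminescence, the latter after 10 min at room temperature, and each plate was normalised to 0.1 % DMSO and a positive kill control.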

[7] = system: CAL-148; assay: as above
How it was run: as §2

[8] = system: HDQ-P1; assay: drug sensitivity score (DSS), CellTiter-Glo (DSS (AUC-based score)); higher = stronger drug effect (viability inhibition or cytotoxicity); extreme values may be limits of the assay
How it was run: as §2

[9] = system: BT-474; assay: as above
How it was run: as §2

[10] = system: MDA-MB-436; assay: as above
How it was run: as §2

[11] = system: MCF-10A; assay: as above
How it was run: as §2

[12] = system: Hs578T; assay: as above
How it was run: as §2

[13] = system: CAL-120; assay: as above
How it was run: as §2

[14] = system: BT-549; assay: as above
How it was run: as §2

[15] = system: HCC1143; assay: as above
How it was run: as §2

[16] = system: DU-4475; assay: as above
How it was run: as §2

[17] = system: MFM-223; assay: as above
How it was run: as §2

[18] = system: CAL-51; assay: as above
How it was run: as §2

[19] = system: HCC1599; assay: as above
How it was run: as §2

[20] = system: CAL-148; assay: as above
How it was run: as §2

[21] = system: MDA-MB-453; assay: as above
How it was run: as §2

[22] = system: MDA-MB-468; assay: as above
How it was run: as §2

[23] = system: HCC1937; assay: as above
How it was run: as §2

[24] = system: CAL-85-1; assay: as above
How it was run: as §2

[25] = system: SK-BR-3; assay: as above
How it was run: as §2

[26] = system: MDA-MB-231; assay: as above
How it was run: as §2

Compound	normalised viability ([1]; 10 nM) [%]	normalised viability ([2]; 100 nM) [%]	normalised viability ([3]; 10 nM) [%]	normalised viability ([4]; 10 nM) [%]	normalised viability ([5]; 100 nM) [%]	drug sensitivity score [6]	drug sensitivity score [7]	drug sensitivity score [8]	drug sensitivity score [9]	drug sensitivity score [10]	drug sensitivity score [11]	drug sensitivity score [12]	drug sensitivity score [13]	drug sensitivity score [14]	drug sensitivity score [15]	drug sensitivity score [16]	drug sensitivity score [17]	drug sensitivity score [18]	drug sensitivity score [19]	drug sensitivity score [20]	drug sensitivity score [21]	drug sensitivity score [22]	drug sensitivity score [23]	drug sensitivity score [24]	drug sensitivity score [25]	drug sensitivity score [26]	normalised viability ([1]; 1 nM) [%]	normalised viability ([2]; 10 nM) [%]	normalised viability ([3]; 1 nM) [%]	normalised viability ([4]; 1 nM) [%]	normalised viability ([5]; 10 nM) [%]
Nc1cc(C(F)(F)F)c(-c2cc(N3CCOCC3)nc(N3CCOCC3)n2)cn1 [BKM-120]	111	86.1	98.5	94.9	112	–	–	–	–	–	–	–	–	–	–	–	–	–	–	–	–	–	–	–	–	–	–	–	–	–	–
CN(C)CCOc1ccc(/C(=C(/CCCl)c2ccccc2)c2ccccc2)cc1 [Toremifene]	129	109	107	108	97.5	0	0	0	1.35	0	1.79	0	0	0	0	0	0.949	0	0	0	0	0	1.98	0	0	0	–	–	–	–	–
O=C(Nc1ccncc1)C(=O)c1cn(Cc2ccc(Cl)cc2)c2ccccc12 [Indibulin]	95.8	64	100	105	30.4	0.995	0	3.33	4.97	11.9	0	7.7	6.2	12.6	5.89	1.15	7.28	19.4	7.03	0	6.57	12.2	3.81	13	12.8	3.55	–	–	–	–	–
Cc1[nH]c2ccccc2c1CCNCc1ccc(/C=C/C(=O)NO)cc1 [Panobinostat]	–	–	–	–	–	13.8	20.9	8.41	16.6	10.2	11.1	15.1	12.9	11.1	15.1	19.2	13.2	17.2	14.7	20	23.5	15.2	9.22	16.5	22.3	18.2	102	86.7	116	102	69.7
Cc1cc(Nc2cc(CN3CCOCC3)c3nc(C)c(Cc4ccc(Cl)cc4F)n3n2)n[nH]1	92.8	71.4	95	97.9	101	–	–	–	–	–	–	–	–	–	–	–	–	–	–	–	–	–	–	–	–	–	–	–	–	–	–
COc1cc(O)c2c(c1)/C=C/C[C@H](O)[C@H](O)C(=O)/C=C\C[C@H](C)OC2=O [(5Z)-7-Oxozeaenol]	–	–	–	–	–	0	16.9	7.51	7.43	7.08	9.62	5.42	4.12	14	2	20	5.76	4.7	3.26	7.16	1.38	9.6	5.41	12.4	2.34	9.42	–	–	–	–	–
COC(=O)c1ccc2c(c1)NC(=O)/C2=C(\Nc1ccc(N(C)C(=O)CN2CCN(C)CC2)cc1)c1ccccc1 [Nintedanib]	–	–	–	–	–	0	0	6.77	5.02	3.08	8.49	1.11	3.62	8.24	2.02	0	7.98	8.21	0	0	1.67	5.28	3.95	0	0	6.66	–	–	–	–	–
CCOC(=O)CCNc1cc(N2CCc3ccccc3CC2)nc(-c2ccccn2)n1 [GSK-J4]	–	–	–	–	–	8.01	10.9	10.5	12.1	15.7	12.1	10.4	10.7	22.2	12.5	13.5	12.5	21.5	12.1	17.3	17	19.9	12	15.1	10.7	14	–	–	–	–	–
